In article PMC10482975 (Nature Communications, 2023):
Residue numbers refer to the chain shown, from its start.

How the values were obtained:
[1] = biological target: T1, M4 mAChR W435A (Homo sapiens, UniProt P08173, W435A); test: [3H]-NMS radioligand dissociation binding, M4 mAChR W435A; design: [3H]-NMS binding remaining vs Total Binding, MEAN: unit not given here; conditions: for [3H]-NMS binding remaining vs Total Binding, MEAN: M4 W435A mAChR
T1 construct: expressed in transfected cells
T1 sequence (P08173 1-479 W435A): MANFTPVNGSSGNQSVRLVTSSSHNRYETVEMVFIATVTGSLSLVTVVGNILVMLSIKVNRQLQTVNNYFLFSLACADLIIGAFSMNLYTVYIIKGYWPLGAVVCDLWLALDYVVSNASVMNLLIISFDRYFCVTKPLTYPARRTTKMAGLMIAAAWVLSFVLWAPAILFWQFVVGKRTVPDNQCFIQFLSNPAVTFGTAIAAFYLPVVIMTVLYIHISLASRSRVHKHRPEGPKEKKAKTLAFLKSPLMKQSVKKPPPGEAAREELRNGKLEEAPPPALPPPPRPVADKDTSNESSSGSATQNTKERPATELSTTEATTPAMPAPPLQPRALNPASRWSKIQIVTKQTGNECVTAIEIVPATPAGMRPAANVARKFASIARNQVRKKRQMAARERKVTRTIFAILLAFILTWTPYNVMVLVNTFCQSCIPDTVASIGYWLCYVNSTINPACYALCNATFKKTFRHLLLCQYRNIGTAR
Method: (§1) Flp-In Chinese hamster ovary (CHO) (Thermo Fisher Scientific) cells stably expressing mAChR WTs or mutant constructs were cultured in Dulbecco’s modified Eagle’s medium (DMEM, Invitrogen) containing 5% foetal bovine serum (FBS; ThermoTrace) and […] of hygromycin (Roche) in a humidified incubator (37 °C, 5% CO2). Upon reaching confluence, media was removed, cells were washed with phosphate buffered saline (PBS) and harvested from tissue culture flasks using versene (PBS with 0.2 g EDTA). Cells were then pelleted through centrifugation at 350 × g for three minutes followed by resuspension in DMEM + 5% FBS. Cells were then either plated for an assay or reseeded into a tissue culture flask.

[2] = biological target: T2, M4 mAChR L190F (Homo sapiens, UniProt P08173, L190F); test: [3H]-NMS radioligand dissociation binding, M4 mAChR L190F; design: unit not given here
T2 construct: expressed in transfected cells
T2 sequence (P08173 1-479 L190F): T1 sequence (P08173 1-479 W435A) with L190F, A435W
Method: as §1

[3] = biological target: T3, M4 mAChR Q184A (Homo sapiens, UniProt P08173, Q184A); test: [3H]-NMS radioligand dissociation binding, M4 mAChR Q184A; design: unit not given here
T3 construct: expressed in transfected cells
T3 sequence (P08173 1-479 Q184A): T1 sequence (P08173 1-479 W435A) with Q184A, A435W
Method: as §1

[4] = + 10uM LY2033 (Allosteric Ligand), Time 0 min (Total Binding)
[5] = + 10uM LY2033 (Allosteric Ligand), Time 30 min
[6] = + 10uM LY2033 (Allosteric Ligand), Time 60 min
[7] = + 10uM LY2033 (Allosteric Ligand), Time 90 min
[8] = + 10uM LY2033 (Allosteric Ligand), Time 120 min
[9] = + 10uM LY2033 (Allosteric Ligand), Time 180 min
[10] = + 10uM LY2033 (Allosteric Ligand), Time 300 min

## COc1nc2sc(C(=O)NC3CC3)c(N)c2c(C)c1Cl [LY2033298]
[1]; [4]
  [3H]-NMS binding remaining vs Total Binding, MEAN: 100
[1]; [5]
  [3H]-NMS binding remaining vs Total Binding, MEAN: 87.6204
[1]; [6]
  [3H]-NMS binding remaining vs Total Binding, MEAN: 83.5904
[1]; [7]
  [3H]-NMS binding remaining vs Total Binding, MEAN: 79.4133
[1]; [8]
  [3H]-NMS binding remaining vs Total Binding, MEAN: 78.9331
[1]; [9]
  [3H]-NMS binding remaining vs Total Binding, MEAN: 67.1451
[1]; [10]
  [3H]-NMS binding remaining vs Total Binding, MEAN: 50.6666
[2]; [4]
  [3H]-NMS binding remaining vs Total Binding, MEAN: 100
[2]; [5]
  [3H]-NMS binding remaining vs Total Binding, MEAN: 104.676
[2]; [6]
  [3H]-NMS binding remaining vs Total Binding, MEAN: 101.661
[2]; [7]
  [3H]-NMS binding remaining vs Total Binding, MEAN: 96.3234
[2]; [8]
  [3H]-NMS binding remaining vs Total Binding, MEAN: 92.5099
[2]; [9]
  [3H]-NMS binding remaining vs Total Binding, MEAN: 89.5439
[2]; [10]
  [3H]-NMS binding remaining vs Total Binding, MEAN: 70.7364
[3]; [4]
  [3H]-NMS binding remaining vs Total Binding, MEAN: 100
[3]; [5]
  [3H]-NMS binding remaining vs Total Binding, MEAN: 89.0052
[3]; [6]
  [3H]-NMS binding remaining vs Total Binding, MEAN: 100.674
[3]; [7]
  [3H]-NMS binding remaining vs Total Binding, MEAN: 109.408
[3]; [8]
  [3H]-NMS binding remaining vs Total Binding, MEAN: 91.4218
[3]; [9]
  [3H]-NMS binding remaining vs Total Binding, MEAN: 88.0443
[3]; [10]
  [3H]-NMS binding remaining vs Total Binding, MEAN: 76.9832

## CCCCCCOc1nsnc1C1=CCCN(C)C1 [xanomeline]
[1]; +100uM Xano, Time 30 min
  [3H]-NMS binding remaining vs Total Binding, MEAN: 96.9648
[1]; +100uM Xano, Time 60 min
  [3H]-NMS binding remaining vs Total Binding, MEAN: 87.005
[1]; +100uM Xano, Time 90 min
  [3H]-NMS binding remaining vs Total Binding, MEAN: 77.1921
[1]; +100uM Xano, Time 120 min
  [3H]-NMS binding remaining vs Total Binding, MEAN: 74.9315
[1]; +100uM Xano, Time 180 min
  [3H]-NMS binding remaining vs Total Binding, MEAN: 64.2361
[1]; +100uM Xano, Time 300 min
  [3H]-NMS binding remaining vs Total Binding, MEAN: 31.9462
[1]; M4 mAChR W435A mutant
  effect on [3H]-NMS dissociation (in words): loss in xanomeline modulation
[2]; +100uM Xano, Time 90 min
  [3H]-NMS binding remaining vs Total Binding, MEAN: 72.792
[2]; +100uM Xano, Time 180 min
  [3H]-NMS binding remaining vs Total Binding, MEAN: 51.0423
[2]; +100uM Xano, Time 300 min
  [3H]-NMS binding remaining vs Total Binding, MEAN: 24.2929
[3]; +100uM Xano, Time 30 min
  [3H]-NMS binding remaining vs Total Binding, MEAN: 83.7482
[3]; +100uM Xano, Time 60 min
  [3H]-NMS binding remaining vs Total Binding, MEAN: 84.3012
[3]; +100uM Xano, Time 90 min
  [3H]-NMS binding remaining vs Total Binding, MEAN: 69.8323
[3]; +100uM Xano, Time 120 min
  [3H]-NMS binding remaining vs Total Binding, MEAN: 76.4651
[3]; +100uM Xano, Time 180 min
  [3H]-NMS binding remaining vs Total Binding, MEAN: 50.1077
[3]; +100uM Xano, Time 300 min
  [3H]-NMS binding remaining vs Total Binding, MEAN: 18.2224
